US20240285555A1, “COMPOSITIONS FOR THE TREATMENT OF COPPER DEFICIENCY AND METHODS OF USE” (priority 2018, published 2024)

Experiments:
coa6Δpic2Δ cells = experiment: Respiratory growth rescue of coa6Δpic2Δ yeast; type: cell-based, Saccharomyces cerevisiae; settings: ES supplementation
Description: To further corroborate that ES increases mitochondrial copper levels by actively transporting extracellular copper into the cells, copper availability in the extracellular compartment was decreased by co-treatment of ES with a known copper chelator, bathocuproine disulfonate (BCS). […] To determine whether ES is able to bypass a mitochondrial copper transporter, Pic2, ES supplementation in pic2Δ and coa6Δpic2Δ cells was performed.

control MEFs = experiment: COX1 levels in control mouse embryonic fibroblasts (toxicity); type: cell-based; settings: higher doses of ES
Description: (§1) Mammalian Cell Culture. The human control MCH46 and SCO2 patient fibroblasts as well as the rat H9c2 control and Ctr1^−/− cardiomyocytes were cultured in high glucose Dulbecco's modified Eagle's medium (DMEM) supplemented with 10% fetal bovine serum (Sigma) and 1 mM sodium pyruvate (Life Technologies). The mouse embryonic fibroblasts were cultured in DMEM 10% FBS, 1 mM sodium pyruvate, 1× minimum essential medium non-essential amino acids (MEM NEAA; Life Technologies 11140), 50 μg/mL uridine, and 1× Pen Strep Glutamine (Life Technologies 10378). All cell lines were cultured under 5% CO2 at 37° C. and were treated with indicated concentrations of ES for 3-6 days before harvesting. Whole cell protein was extracted in lysis buffer (BP-115, Boston BioProducts) supplemented with protease inhibitor cocktail (Roche Diagnostics) and the protein concentrations were determined by BCA assay (Thermo Scientific).
(§2) Immunoblotting and In-gel Activities. Sodium dodecyl sulfate polyacrylamide gel electrophoresis (SDS-PAGE) and Blue Native PAGE (BN-PAGE) were performed to separate denatured and native protein complexes, respectively. For SDS-PAGE, mitochondrial lysate ([…]) was separated on NuPAGE 4-12% Bis-Tris gels (Life Technologies, Carlsbad, CA). For BN-PAGE, yeast mitochondria were solubilized in buffer containing 1% digitonin (Life Technologies) by incubating for 15 min at 4° C. […]

SCO2 patient fibroblasts = experiment: Steady state COX2 levels in SCO2 patient fibroblasts; type: cell-based, human; settings: dose and time dependent
Description: as §1, §2

[1] = system: immortalized control (MCH46) and SCO2 patient fibroblasts, primary human skin fibroblasts (MW28); experiment: Cell viability of human fibroblasts (total cellular ATP, Cell-Titre GLo); type: cell-based
Description: FIGS. 5A and 5B illustrate cell viability of immortalized and primary human fibroblasts cell lines treated with increasing concentrations of elesclomol. […] Cell viability was measured by quantifying total cellular ATP levels by Cell-Titre GLo assay (Promega). Data are expressed as mean±SD (n=3).
ES Supplementation Rescues Levels of CcO Subunits in Mammalian Cell Lines with Genetic Defects in Copper Metabolism. To expand upon the findings in yeast and to test the efficacy of ES in mammalian cell culture models of copper deficiency, a Ctr1 knockout rat H9c2 cardiomyocyte cell line was constructed. […] As expected, the loss of Ctr1 led to a ˜4-fold decrease in the levels of intracellular copper (FIG. 4A) and a concomitant reduction in the levels of the CcO subunitCOX1 and superoxide dismutase, SOD1 (FIG. 4B). This validated Ctr1^−/− cell line was used to test the efficacy of ES in rescuing COX1, a copper-containing subunit of CcO and SOD1, superoxide dismutase, another copper-containing enzyme SOD1. […] Finally, the efficacy of ES in rescuing CcO defects in SCO2 patient fibroblasts that were previously shown to have a COX2 deficiency was tested.

[2] = system: CcO-containing mitochondrial respiratory chain supercomplexes; experiment: Assembly and activity of CcO-containing supercomplexes (native PAGE blotting, in-gel activity); type: cell-based, Saccharomyces cerevisiae; settings: 20 nM ES, YP galactose medium
Description: FIGS. 2A, 2B, 2C, 2D and 2E illustrate elesclomol supplementation rescues CcO assembly defects by restoring mitochondrial copper levels of yeast S. cerevisiae coa6Δ cells. FIGS. 2A-2C illustrate bioenergetic parameters of wild type (WT), coa6Δ, and coa6Δ cells supplemented with 20 nM ES were cultured in YP galactose medium until early stationary growth phase. […] Error bars represent mean±SD (n=3, two-tailed unpaired Student's t-test *p<0.05, **p<0.005).
as §2
A number of copper-binding pharmacological agents were tested for their ability to rescue respiratory deficient growth of coa6Δ cells. […] To determine the biochemical basis for the observed respiratory rescue of coa6Δ cells, the assembly and activity of CcO-containing mitochondrial respiratory chain supercomplexes was measured by native-polyacrylamide gel electrophoresis blotting and in-gel activity assay, respectively. […]

yeast atx1Δ = experiment: Respiratory growth rescue of atx1Δ yeast; type: cell-based, Saccharomyces cerevisiae; settings: non-fermentable media, 37° C.
Description: Yeast Strains and Culture Conditions. The authenticity of yeast strains was confirmed by PCR as well as by replica plating on dropout plates. Yeast cells were cultured in standard YP growth media including YPD (1% yeast extract, 2% peptone and 2% glucose), YPGal (2% galactose), YPGE (3% glycerol+1% ethanol), or synthetic media (SC glucose). For qualitative growth measurement, 10-fold serial dilutions of overnight cultures were spotted on YPD or YPGE plates and incubated at 30° C. and 37° C. for the indicated period. Growth in liquid media was measured spectrophotometrically at 600 nm.
ES Rescues Many Different Yeast Mutants with Impaired Copper Metabolism. To test the specificity of ES mediated rescue, a number of yeast mutants of genes required for maintaining cellular and mitochondrial copper homeostasis were shortlisted. Genes were prioritized based on their evolutionary conservation, presence of pathogenic mutations in humans, and/or the existence of a related mouse phenotype (Table 3, shown below). […] Most of the yeast mutants were rescued with ES supplementation, albeit to different degrees, reflecting their distinct roles in cellular and mitochondrial copper homeostasis. […]

CN(NC(=O)CC(=O)NN(C)C(=S)c1ccccc1)C(=S)c1ccccc1 [ES, elesclomol]
rescue of respiratory growth (coa6Δpic2Δ cells): did rescue
ES toxicity reflected in COX1 levels (control MEFs): reduced COX1 levels
steady state levels of COX2 (SCO2 patient fibroblasts): partially rescue
toxicity in immortalized cell lines compared to primary cultures [1]: much more pronounced toxicity in immortalized cell lines
concentration at which ES toxicity occurs relative to the dose that rescued COX2 levels ([1]; immortalized fibroblasts, 36 hours): 20 ×
abundance and activity of CcO-containing supercomplexes [2]: restored the abundance and activity of CcO-containing supercomplexes to near wild type levels
rescue of respiratory growth (yeast atx1Δ): rescue
